Reference: the supplement of paper PMC11061612

Columns and labels:
[1] = tested on: HCC1954 (Breast Carcinoma); assay: Bliss excess, mean over the matrix (fraction); higher = more synergy
Summary of the method: (§1)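 Cell lines grown in DMEM/F12 or RPMI with 10% FBS were plated in 1536-well plates and held 24 hours at 37°C, 5% CO2 before 72 hours of exposure to two-drug dose matrices, with DMSO typically at 0.2%. CellTiter-Glo 2.0 luminescence gave viability, which was converted to inhibition. Vehicle wells were set to 0 and blank wells to 1. Combination Emax is the second-highest inhibition in the matrix, and Bliss excess is the observed combination effect minus the expected EA + EB − EA·EB, where EA and EB are the single-agent effects.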

[2] = tested on: VCaP (Prostate Carcinoma); assay: as above
Summary of the method: as §1

[3] = tested on: CAS-1 (Glioblastoma); assay: as above
Summary of the method: as §1

[4] = tested on: COLO-320-HSR (Colorectal Carcinoma); assay: as above
Summary of the method: as §1

[5] = tested on: CAL-29 (Bladder Carcinoma); assay: as above
Summary of the method: as §1

[6] = tested on: NCI-H2141 (Small Cell Lung Carcinoma); assay: as above
Summary of the method: as §1

[7] = tested on: SISO (Cervical Carcinoma); assay: as above
Summary of the method: as §1

[8] = tested on: NCI-H2591 (Mesothelioma); assay: as above
Summary of the method: as §1

[9] = tested on: TT2609-C02 (Thyroid Gland Carcinoma); assay: as above
Summary of the method: as §1

[10] = tested on: NCI-H1581 (Non-Small Cell Lung Carcinoma); assay: as above
Summary of the method: as §1

[11] = tested on: IGR-37 (Melanoma); assay: as above
Summary of the method: as §1

[12] = tested on: SK-MG-1 (Low Grade Glioma); assay: as above
Summary of the method: as §1

[13] = tested on: TT (Thyroid Gland Carcinoma); assay: as above
Summary of the method: as §1

[14] = tested on: MDST8 (Colorectal Carcinoma); assay: as above
Summary of the method: as §1

[15] = tested on: NY (Osteosarcoma); assay: as above
Summary of the method: as §1

[16] = tested on: OS-RC-2 (Kidney Carcinoma); assay: as above
Summary of the method: as §1

[17] = tested on: NCI-H2066 (Squamous Cell Lung Carcinoma); assay: as above
Summary of the method: as §1

[18] = tested on: NCI-H2591 (Mesothelioma); assay: combination Emax (second highest fraction inhibited in the dose matrix, 72 h); higher = more inhibition; extreme values may be limits of the assay
Summary of the method: as §1

[19] = tested on: TT2609-C02 (Thyroid Gland Carcinoma); assay: as above
Summary of the method: as §1

[20] = tested on: MDST8 (Colorectal Carcinoma); assay: as above
Summary of the method: as §1
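Throughout, for Bliss excess, mean over the matrix: after 72 h of two-drug dosing.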

Compound	Bliss excess [1]	Bliss excess [2]	Bliss excess [3]	Bliss excess [4]	Bliss excess [5]	Bliss excess [6]	Bliss excess [7]	Bliss excess [8]	Bliss excess [9]	Bliss excess [10]	Bliss excess [11]	Bliss excess [12]	Bliss excess [13]	Bliss excess [14]	Bliss excess [15]	Bliss excess [16]	Bliss excess [17]	combination Emax [18]	combination Emax [19]	combination Emax [20]
CN(C)CCCOc1ccc(-c2ccc3ncc4c(c3c2)n(C2CCOCC2)c(=O)n4C)cn1 [AZD0156] + C=CCn1c(=O)c2cnc(Nc3ccc(N4CCN(C)CC4)cc3)nc2n1-c1cccc(C(C)(C)O)n1 [AZD1775] (first compound max 1 µM, partner max 1 µM)	-0.034	-0.0751	-0.0512	-0.0454	-0.0301	-0.0944	-0.0513	-0.0306	-0.0119	-0.0641	-0.0159	0.0174	-0.0951	-0.0358	-0.0212	-0.0652	-0.07	0.191	0.334	0.416
CN(C)CCCOc1ccc(-c2ccc3ncc4c(c3c2)n(C2CCOCC2)c(=O)n4C)cn1 [AZD0156] + CCN(CCO)CCCOc1ccc2c(Nc3cc(CC(=O)Nc4cccc(F)c4)[nH]n3)ncnc2c1 [AZD2811] (first compound max 1 µM, 7x7, partner max 1 µM)	-0.0137	-0.0484	0.0191	-0.0278	0.0269	-0.0327	0.0081	-0.0204	-0.0032	-0.007	-0.0191	0.0212	-0.0871	0.0279	-0.0466	-0.0312	-0.0649	0.112	0.258	0.281
CN(C)CCCOc1ccc(-c2ccc3ncc4c(c3c2)n(C2CCOCC2)c(=O)n4C)cn1 [AZD0156] + C[C@@H]1COCCN1C2=NC(=NC(=C2)C3(CC3)[S@](=N)(=O)C)C4=C5C=CNC5=NC=C4 [AZD6738] (first compound max 1 µM, 7x7, partner max 10 µM)	0.0016	-0.037	-0.0046	-0.0146	0.0162	-0.0766	0.0119	-0.0461	-0.0067	0.0005	-0.0153	0.0249	-0.0583	0.0296	-0.0372	-0.0419	-0.0404	0.293	0.144	0.919
CN(C)CCCOc1ccc(-c2ccc3ncc4c(c3c2)n(C2CCOCC2)c(=O)n4C)cn1 [AZD0156] + O=C(c1cc(Cc2n[nH]c(=O)c3ccccc23)ccc1F)N1CCN(C(=O)C2CC2)CC1 [Olaparib] (first compound max 3 µM, partner max 3 µM)	0.0066	0.0063	0.0481	0.104	0.0098	0.0117	0.0631	-0.0248	0.0251	0.0465	-0.0103	0.0333	-0.0297	0.0269	-0.0279	-0.0432	0.0139	0.135	0.152	0.361
C=CCn1c(=O)c2cnc(Nc3ccc(N4CCN(C)CC4)cc3)nc2n1-c1cccc(C(C)(C)O)n1 [AZD1775] + C1CN(CCC1(C(=O)N[C@@H](CCO)C2=CC=C(C=C2)Cl)N)C3=NC=NC4=C3C=CN4 [Capivasertib] (first compound max 3 µM, partner max 3 µM)	0.002	-0.061	0.0104	-0.0314	0.0187	-0.0268	-0.102	-0.035	0.0087	0.0271	-0.0316	-0.0212	-0.0079	-0.0769	-0.0746	-0.085	-0.0567	0.178	0.466	0.704
C=CCn1c(=O)c2cnc(Nc3ccc(N4CCN(C)CC4)cc3)nc2n1-c1cccc(C(C)(C)O)n1 [AZD1775] + C[C@@H]1COCCN1C2=NC(=NC(=C2)C3(CC3)[S@](=N)(=O)C)C4=C5C=CNC5=NC=C4 [AZD6738] (first compound max 1 µM, partner max 10 µM)	0.111	0.006	-0.0535	0.0852	-0.006	0.0248	0.0461	-0.0355	-0.0026	0.0228	0.0017	-0.0173	-0.0676	-0.0161	-0.0386	-0.0604	0.0216	0.389	0.393	0.816
CN(CCO)CC[C@H](CSc1ccccc1)Nc1ccc(S(=O)(=O)NC(=O)c2ccc(N3CCC([C@@H](O)c4ccccc4-c4ccc(Cl)cc4)CC3)cc2)cc1S(=O)(=O)C(F)(F)F [AZD4320] + C[C@@H]1COCCN1C2=NC(=NC(=C2)C3(CC3)[S@](=N)(=O)C)C4=C5C=CNC5=NC=C4 [AZD6738] (first compound max 1 µM, 7x7, partner max 10 µM)	0.0289	-0.0287	-0.0307	0.0161	0.0426		-0.0078	-0.0462	-0.0542	-0.0837	0.0151	0.0076	-0.033	-0.0578	0.0125	-0.0807	-0.0437	0.612	0.25	0.944
CN(CCO)CC[C@H](CSc1ccccc1)Nc1ccc(S(=O)(=O)NC(=O)c2ccc(N3CCC([C@@H](O)c4ccccc4-c4ccc(Cl)cc4)CC3)cc2)cc1S(=O)(=O)C(F)(F)F [AZD4320] + C[C@@H](Nc1cc(F)cc(F)c1)c1cc(C(=O)N(C)C)cc2c(=O)cc(N3CCOCC3)oc12 [AZD8186] (first compound max 1 µM, 7x7, partner max 3 µM)	0.0622	0.0559	-0.0831	0.0504	-0.0215	0.0326	0.0326	0.0135	0.0003	0.0052	0.029	-0.0189	-0.061	0.025	-0.005	-0.0197	-0.0671	0.214	0.294	
COc1nnc2ccc(N3CCC(c4ccc(OCCN5CCN(C)C(=O)[C@H]5C)cc4)CC3)nn12 [AZD5153] + CN(CC[C@H](CSC1=CC=CC=C1)NC2=C(C=C(C=C2)S(=O)(=O)NC(=O)C3=CC=C(C=C3)N4CCC(CC4)[C@H](C5=CC=CC=C5C6=CC=C(C=C6)Cl)O)S(=O)(=O)C(F)(F)F)CCO [AZD4320] (first compound max 1 µM, 7x7, partner max 1 µM)	-0.0119		0.0455		-0.0125	0.048	-0.0052	0.0088	0.0257			0.0462		0.0929		0.0115		0.395	0.424	0.918
Cc1c2c(nn1C)CSCc1cc(n(C)n1)CSc1cc(c3ccccc3c1)OCCCc1c(C(=O)O)n(C)c3c-2c(Cl)ccc13 [AZD5991] + C1CN(CCC1(C(=O)N[C@@H](CCO)C2=CC=C(C=C2)Cl)N)C3=NC=NC4=C3C=CN4 [Capivasertib] (first compound max 1 µM, 7x7, partner max 3 µM)	0.0559	0.0545	-0.0094	0.0007	-0.0211	0.0003	-0.0021	-0.0306	-0.019	-0.0048		0.0354	-0.0499	-0.0102	0.0079	-0.0596	-0.0197	0.191	0.227	0.269
Cc1c2c(nn1C)CSCc1cc(n(C)n1)CSc1cc(c3ccccc3c1)OCCCc1c(C(=O)O)n(C)c3c-2c(Cl)ccc13 [AZD5991] + C[C@@H]1COCCN1C2=NC(=NC(=C2)C3(CC3)[S@](=N)(=O)C)C4=C5C=CNC5=NC=C4 [AZD6738] (first compound max 1 µM, 7x7, partner max 10 µM)	0.0518	0.0348	0.109	0.0363	0.0409	0.0675	0.0628	0.023	0.0043	-0.0036	0.124	0.0868	-0.0066		0.0486	0.0211	0.0148	0.392	0.392	0.78
CC(=O)c1c(C)c2cnc(Nc3ccc(N4CCNCC4)cn3)nc2n(C2CCCC2)c1=O [Palbociclib] + CN(CC[C@H](CSC1=CC=CC=C1)NC2=C(C=C(C=C2)S(=O)(=O)NC(=O)C3=CC=C(C=C3)N4CCC(CC4)[C@H](C5=CC=CC=C5C6=CC=C(C=C6)Cl)O)S(=O)(=O)C(F)(F)F)CCO [AZD4320] (first compound max 10 µM, 7x7, partner max 1 µM)	-0.0722		-0.143		-0.0702	-0.067	-0.0669	-0.0845	-0.0615			-0.078		-0.0168		-0.0999		0.249	0.29	0.781
CCc1c2c(nc3ccc(O)cc13)-c1cc3c(c(=O)n1C2)COC(=O)[C@]3(O)CC [SN-38] + O=C(c1cc(Cc2n[nH]c(=O)c3ccccc23)ccc1F)N1CCN(C(=O)C2CC2)CC1 [Olaparib] (first compound max 0.3 µM, 7x7, partner max 10 µM)		0.104	-0.0274	-0.0523		0.0521	0.0546	-0.0219		0.0009	0.0226	0.0512	0.0545	-0.0419	0.071		-0.0477	0.575		0.745
C[C@@H](c1ccc2nccn2c1)n1nnc2ncc(-c3cnn(C)c3)nc21 [Savolitinib] + CN(CC[C@H](CSC1=CC=CC=C1)NC2=C(C=C(C=C2)S(=O)(=O)NC(=O)C3=CC=C(C=C3)N4CCC(CC4)[C@H](C5=CC=CC=C5C6=CC=C(C=C6)Cl)O)S(=O)(=O)C(F)(F)F)CCO [AZD4320] (first compound max 1 µM, 7x7, partner max 1 µM)	-0.0198		-0.0975		-0.0647	-0.0695	-0.045	-0.0714	-0.103			-0.0651		-0.0668		-0.0618		0.15	0.174	0.626
